Test results reported in patent US7235548B2, “Compounds and their use as positive AMPA receptor modulators” (NeuroSearch A/S, priority 1998, dated 2007).

Assays:
[1] = target: ionotropic quisqualate (AMPA) receptors; experiment: In vitro inhibition of 3H-AMPA binding; conditions: 5 nM 3H-AMPA, rat cerebral cortex membranes, 30 min at 2° C.; read-out: IC50 (concentration of the test substance which inhibits the specific binding of 3H-AMPA by 50%)
Excerpt: L-glutamate (GLU) is the major excitatory neurotransmitter in the mammalian central nervous system. From electrophysiological- and binding studies, there appear to be at least three subtypes of GLU receptors, tentatively named N-methyl-D-aspartate (NMDA)-, quisqualate- and kainate receptors. GLU receptor subtypes sensitive to quisqualate and kainate as a group are often referred to as non-NMDA receptors. Receptor binding studies using the labelled agonists ^3H-AMPA (α-amino-3-hydroxy-5-methyl-4-isoxazolepropionic acid) (for quisqualate receptors) and ^3H-kainate (for kainate receptors) have shown different antagonist selectivities and regional distribution. AMPA has been known for several years to be a potent and selective agonist at the traditionally named quisqualate receptors. Activation of quisqualate receptors by AMPA is associated with Na^+ influx and K^+ efflux leading to depolarization.
The non-NMDA receptors have recently been reclassified to include the quisqualate activated metabotropic receptor type, linked to the inositol triphosphate and diacylglycerate metabolism. […] Selective activation of the metabotropic type has been claimed for trans-ACPD. Recently, the potent and competitive non-NMDA receptor antagonists CNQX and NBQX have been described, and CNQX have been reported not to block the effect of quisqualate at the metabotropic receptor subtype. ^3H-AMPA is a selective radioligand for labelling the ionotropic quisqualate (AMPA) receptors.
Preparations are performed at 0–4° C. unless otherwise indicated. Cerebral cortex from male Wistar rats (150–200 g) is homogenized for 5–10 sec in 20 ml Tris-HCl (30 mM, pH 7.4) using an Ultra-Turrax homogenizer. The suspension is centrifuged at 27,000×g for 15 min and the pellet is washed three times with buffer (centrifuged at 27,000×g for 10 min). The washed pellet is homogenized in 20 ml of buffer and incubated on a water bath (37° C.) for 30 min to remove endogenous glutamate and then centrifuged for 10 min at 27,000×g. The pellet is then homogenized in buffer and centrifuged at for 10 min at 27,000×g. The final pellet is resuspended in 30 ml buffer and the preparation is frozen and stored at −20° C.
The membrane preparation is thawed and centrifuged at 2° C. for 10 min at 27,000×g for 10 min. The pellet is washed twice with 20 ml 30 mM Tris-HCl containing 2.5 mM CaCl2, pH 7.4 using an Ultra-Turrax homogenizer and centrifuged for 10 min at 27,000×g. The final pellet is resuspended in 30 mM Tris-HCl containing 2.5 mM CaCl2 and 100 mM KSCN, pH 7.4 (100 ml per g of original tissue) and used for binding assays. Aliquots of 0.5 (0.2) ml are added to 25 (20) μl of test solution and 25(20) μl of ^3H-AMPA (5 nM, final concentration), mixed and incubated for 30 min at 2° C. Non-specific binding is determined using L-glutamate (0.6 mM, final concentration). After incubation the 550 μl samples are added 5 ml of ice-cold buffer and poured directly onto Whatman GF/C glass fibre filters under suction and immediately washed with 5 ml of ice-cold buffer. The 240 μl samples are filtered over glass fibre filter using a Skatron cell harvrester. The filters are washed with 3 ml ice-cold buffer. The amount of radioactivity on the filters is determined by conventional liquid scintillation counting. Specific binding is total binding minus non-specific binding.
The test value will be given as the IC50 (the concentration (μM) of the test substance which inhibits the specific binding of ^3H-AMPA by 50%)

[2] = tested on: AMPA induced [3H]GABA release from cultured cortical neurons; experiment: Potentiation of AMPA induced [3H]GABA release from cultured cortical neurons; type: cell-based, mouse; conditions: 5 μM AMPA; expressed relative to potentiation induced by 30 μM cyclothiazide; FIGS. 1 and 2
Experimental: Neurons which express receptors for excitatory amino acids can be depolarized by such compounds and this depolariztion will ultimately lead to a release of transmitter substance from the neurons. Cultured neurons obtained from 16-day-old mouse embryo cortex are mainly GABAergic and express all types of excitatory amino acid receptors. This means that they can be stimulated by high potassium (55 mM) or by the excitatory amino acids NMDA (20 μM), AMPA (5 μM) and kainate (5 μM) to release their neurotransmitter GABA.
^3H-GABA may be used to label the GABA transmitter pool in the neurons and the release of ^3H-GABA from the neurons may be used as a simple functional model for studies of the effects of excitatory amino acid receptor agonists, antagonists, and modulators.
Cerebral cortices of 15–16 day-old NMRI mouse embryos are chopped in 0.4×0.4 mm cubes and the tissue is dissociated by mild trypsinization (0.1% (wt/vol) trypsin, 37° C., 10 min). Subsequently the cell suspension (3 mill/ml) is inoculated into poly-L-lysine-coated 30 mm Petri dishes (3 ml/dish) containing a slightly modified DMEM (24.5 mM KCl) supplemented with p-aminobenzoate (7 μM), insulin (100 mU/L) and 10% (vol/vol) horse serum. Cells are maintained in culture for 5–7 days with the addition of the antimitotic agent cytosine arbinoside (5 μM) from day 2 in vitro to prevent glial proliferation. […]

Row | IC50 [1] | Structure (SMILES) | potentiation of AMPA induced [3H]GABA release [2]
1 | 8.5 µM | CN1CCN(S(=O)(=O)c2ccc3c(c2)S(=O)(=O)NC(C2CCCCC2)N3)CC1 (stereo not drawn) [Compound 61, 3-Cyclohexyl-7-(4′-methylpiperazino)sulfonyl-1,2,3,4-tetrahydro-1,2,4-benzothiadiazine-1,1-dioxide] | –
2 | 7 µM | Cc1cc2c(cc1S(=O)(=O)N1CCOCC1)S(=O)(=O)NC(C1CCCCC1)N2 (stereo not drawn) [Compound 115, 3-Cyclohexyl-6-methyl-7-morpholinosulfonyl-1,2,3,4-tetrahydro-1,2,4-benzothiadiazine-1,1-dioxide] | potentiation
3 | 6 µM | O=S1(=O)NC(C2CCCCC2)Nc2ccc(S(=O)(=O)N3CCOCC3)cc21 (stereo not drawn) [Compound 63, 3-Cyclohexyl-7-morpholinosulfonyl-1,2,3,4-tetrahydro-1,2,4-benzothiadiazine-1,1-dioxide] | –
4 | 33 µM | Cc1cc2c(cc1S(=O)(=O)N1CCCCC1)S(=O)(=O)NC(C1CCCC1)N2 (stereo not drawn) [Compound 114, 3-Cyclopentyl-6-methyl-7-piperidinosulfonyl-1,2,3,4-tetrahydro-1,2,4-benzothia-diazine-1,1-dioxide] | potentiation
